PubChem BioAssay (NCI)
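Each compound was tested at five concentrations against cells in 96-well plates for 48 hours. The concentration for full growth arrest is given as TGI.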

Assays:
Assay in all cases: inhibition of tumour cell growth, NCI panel, 48 h
NCI-H522 lung = system: NCI-H522 lung
SN12C renal = system: SN12C renal
NCI-H23 lung = system: NCI-H23 lung
EKVX NSCLC = system: EKVX NSCLC
KM20L2 colon = system: KM20L2 colon
SNB-78 CNS = system: SNB-78 CNS
IGROV1 ovarian = system: IGROV1 ovarian
SNB-19 CNS = system: SNB-19 CNS
MOLT-4 leukemia = system: MOLT-4 leukemia
SK-MEL-28 melanoma = system: SK-MEL-28 melanoma
DMS 273 small cell lung = system: DMS 273 small cell lung
SF-539 CNS = system: SF-539 CNS
RPMI-8226 leukemia = system: RPMI-8226 leukemia
M14 melanoma = system: M14 melanoma
M19-MEL melanoma = system: M19-MEL melanoma
LXFL 529 NSCLC = system: LXFL 529 NSCLC
SR leukemia = system: SR leukemia
COLO 205 colon = system: COLO 205 colon
XF 498 CNS = system: XF 498 CNS
SF-268 CNS = system: SF-268 CNS
NCI-H460 lung = system: NCI-H460 lung
SNB-75 CNS = system: SNB-75 CNS
SK-MEL-2 melanoma = system: SK-MEL-2 melanoma
KM12 colon = system: KM12 colon
HCT-116 colon = system: HCT-116 colon
SW-620 colon = system: SW-620 colon
U251 CNS = system: U251 CNS
TK-10 renal = system: TK-10 renal
SK-OV-3 ovarian = system: SK-OV-3 ovarian
HCT-15 colon = system: HCT-15 colon
HOP-62 NSCLC = system: HOP-62 NSCLC
NCI-H226 lung = system: NCI-H226 lung
A549 NSCLC = system: A549 NSCLC
CAKI-1 renal = system: CAKI-1 renal
RXF-631 renal = system: RXF-631 renal
SK-MEL-5 melanoma = system: SK-MEL-5 melanoma
DMS 114 small cell lung = system: DMS 114 small cell lung
DLD-1 colon = system: DLD-1 colon
ACHN renal = system: ACHN renal
HT29 colon = system: HT29 colon
K-562 leukemia = system: K-562 leukemia
OVCAR-3 ovarian = system: OVCAR-3 ovarian
OVCAR-8 ovarian = system: OVCAR-8 ovarian
A498 renal = system: A498 renal
HOP-92 NSCLC = system: HOP-92 NSCLC
UACC-62 melanoma = system: UACC-62 melanoma
UO-31 renal = system: UO-31 renal
OVCAR-5 ovarian = system: OVCAR-5 ovarian
786-0 renal = system: 786-0 renal
MALME-3M melanoma = system: MALME-3M melanoma
HCC-2998 colon = system: HCC-2998 colon
HL-60(TB) leukemia = system: HL-60(TB) leukemia
OVCAR-4 ovarian = system: OVCAR-4 ovarian
CCRF-CEM leukemia = system: CCRF-CEM leukemia
SF-295 CNS = system: SF-295 CNS
UACC-257 melanoma = system: UACC-257 melanoma
RXF 393 renal = system: RXF 393 renal
LOX IMVI melanoma = system: LOX IMVI melanoma

Measured: TGI

COc1ccc(/C(=N\NC(=O)C(=O)NN)C(c2ccc(OC)cc2)C2(O)C(=O)Nc3ccccc32)cc1 (centres undefined)
82.1 µM: UO-31 renal
not listed: HCC-2998 colon | HL-60(TB) leukemia | OVCAR-4 ovarian | CCRF-CEM leukemia | SF-295 CNS | UACC-257 melanoma | RXF 393 renal | LOX IMVI melanoma
> 100 µM: all other assays above

COc1ccc(C(=O)C(C(=O)CC(=O)Nc2cccc(C(F)(F)F)c2)c2ccc(OC)cc2)cc1 (centres undefined)
85.5 µM: SNB-75 CNS
not listed: TK-10 renal | LOX IMVI melanoma
> 100 µM: all other assays above

C#CCOCn1cnc2c(Sc3c([N+](=O)[O-])ncn3C)ncnc21
72.7 µM: SNB-75 CNS
not listed: SNB-78 CNS | MOLT-4 leukemia | SF-539 CNS | SR leukemia | HCT-116 colon
> 100 µM: all other assays above
